How the values were obtained:
DMD boys = details: added to background ACE inhibitor or ARB therapy; at 12 months; Raman et al. 2015; cited from earlier work
[1] = rats, [14C]-labeled; Kolkhof et al. 2014; cited from earlier work
MDX-mice [2] = test: EDL eccentric contractions (ex vivo contractility of isolated muscle from treated mice); assay type: in vivo; details: for Ecc2 (% Ecc1) / Ecc5 (% Ecc1) / Post-rest Ecc6 (% Ecc1): EDL of MDX-mice treated 16 weeks via chow (150 ppm BAY 41-2272 or 100 ppm Finerenone), Mean ± SEM; for Ecc2 (% Ecc1): 2nd eccentric contraction; for Ecc5 (% Ecc1): 5th eccentric contraction; for Post-rest Ecc6 (% Ecc1): 6th eccentric contraction after 15 minutes of rest; for Effect on muscle strength (EDL eccentric contractions), in words: MDX-mice treated 16 weeks
Source text: (§1) Preferentially mice were used, especially transgenic mice (B6.Cg-^Terctm1Rdp Dmd^mdx-4Cv/BlauJ; Jackson Laboratories, strain Nr.: 023535; Dystrophin-deficient, utrophin haplo-insufficient (utrn +/−; mdx)). These so called MDX mice carry a mutation in the dystrophin gene which reflects the phenotype and clinical situation of patients with muscular dystrophies (Sacco et al.; Cell. 2010 Dec. 23; 143(7):1059-71, Mourkioti et al. Nat Cell Biol. 2013 August; 15(8):895-904).
(§2) As read-outs were preferentially used: • In vitro, hydroxyproline measurement to assess fibrotic tissue. To analyze the collagen content in tissue samples, hydroxyproline assays were performed. After digestion of the tissue (e.g. heart and muscle) in 6M HCl for three hours at 120° C., chloramine T (0.06 M) was added and samples were mixed and incubated for 20 min at room temperature. 3.15 M perchloric acid and 20% p-dimethylaminobenzaldehyde were added and samples were incubated for additional 20 min at 60° C. The absorbance was determined at 557 nm. • In vitro, semiquantitative RT/PCR (TaqMan PCR) was used to assess gene expression. Mice were euthanized and hearts and muscles (e.g. EDL=extensor digitorum longus muscle, diaphragm) were collected. Total RNA was isolated and gene expression was semiquantified after reverse transcription (RT) reaction via TaqMan polymerase chain reaction (PCR). • In vitro, histopathology to assess heart and muscle damage. Mice were euthanized and hearts and muscles (e.g. EDL, diaphragm) were collected. Cryosections were prepared and stained with Hematoxylin and Eosin (H&E) to assess overall histopathology. • Ex vivo, contractility measurements of muscle contraction in isolated muscles (e.g. EDL, diaphragm) to assess muscle function and contractility. Isolated muscles were stretched to optimal length using twitch contractions (evoked by a single 4 ms pulse). After 10 minutes, a tetanus contraction was performed (150 Hz for 250 ms). After another 5 min rest period, 6 eccentric contractions (150 Hz for 450 ms, subjected to a 3% stretch for the final 200 ms of contraction) were done with two minutes of rest between the first 5 stimulations and 15 minutes of rest between the fifth and sixth stimulation. • In vivo, non-invasive echocardiography and computer tomography to assess heart and cardiovascular function. Mice were anaesthetized and heart structure and function was assessed non-invasively by using the echocardiograph type Vevo2100. In addition, cardiac function was investigated in anesthetized mice by using magnetic resonance imaging (MRI) technique on a 9.4 or 11.7 Tesla 30 mm bore system (Bruker Biospin) together with standard electrocardiographic (ECG). Myocardial strain and strain rate were assessed using vector-based tracking software (Vector Velocity Imaging, Siemens). • In vivo, invasive left-ventricular function and pressure-volume relationship to assess heart and cardiovascular function. Invasive left-ventricular hemodynamics were performed in anaesthetized mice using a pressure catheter and a PN loop catheter. • In vivo assessment of muscle force (Hanging wire test, four limb hanging test, grip strength test) to asses muscle function. For the hanging wire and four limb hanging test, conscious mice are freely hanging on a grid and hanging time is recorded and corrected for body weight of the mice. The grip strength (GS) measurements to investigate front-leg muscle strength were performed in conscious mice by using a grip strength meter (Columbus Instruments). Mice were trained to hold on with their front paws on a wire mesh grid and carefully pulled backwards. This procedure was repeated up to 5 times with one minute breaks between measurements and the maximal power in Newton (N) was registered. The highest grid strength value (GS) in Newton was reported and related to body weight (BW) in mg. […] (Table 1). • In vivo assessment of physical capacity was assessed. […]

MDX-mice [3] = test: Grip strength test (front-leg muscle strength) in MDX mice; assay type: in vivo; details: for GS/BW trial 5 / GS/BW trial 1 / Grip Strength trial 1 / Grip Strength trial 5: MDX-mice treated 16 weeks via chow (150 ppm BAY 41-2272 or 100 ppm Finerenone), Mean ± SEM; for GS/BW trial 5 / GS/BW trial 1: grip strength related to body weight; for GS/BW trial 5: fatigued mice; for GS/BW trial 1: rested mice; for Grip Strength trial 1: highest force from rested mice; for Grip Strength trial 5: highest force in fatigued mice; for Effect on muscle strength (grip strength), in words: MDX-mice treated 16 weeks, each compound alone; for Efficacy of monotherapy compared with combination of steroidal MR antagonist (spironolactone) and ACE inhibitor (lisinopril): regarding grip strength, base myocardial strain rate and forces after lengthening contractions of the EDL, comparator from Lowe et al.
Source text: as §1, §2

MDX-mice [4] = test: Endocardial circumferential peak systolic strain rate at the base of the heart (MRI, vector-based tracking); assay type: in vivo; details: for Effect on heart function (systolic strain rate), in words: MDX-mice treated 16 weeks; for Base_PeakSysSR_Lat (endocardial circumferential S−1) / Base_PeakSysSR_Mean (endocardial circumferential S−1) / Base_PeakSysSR_Septum (endocardial circumferential S−1): MDX-mice treated 16 weeks via chow (150 ppm BAY 41-2272 or 100 ppm Finerenone), base of the heart, Mean ± SEM; for Base_PeakSysSR_Lat (endocardial circumferential S−1): lateral; for Base_PeakSysSR_Mean (endocardial circumferential S−1): mean; for Base_PeakSysSR_Septum (endocardial circumferential S−1): septum
Source text: as §1, §2

| SMILES | Effect on left ventricular systolic function (LV circumferential strain) (DMD boys) | Tissue distribution into cardiac and kidney tissues [1] | Ecc2 (% Ecc1) (MDX-mice [2]) | Ecc5 (% Ecc1) (MDX-mice [2]) | Post-rest Ecc6 (% Ecc1) (MDX-mice [2]) | Effect on muscle strength (EDL eccentric contractions), in words (MDX-mice [2]) | GS/BW trial 5 (MDX-mice [3]) [mN/g] | GS/BW trial 1 (MDX-mice [3]) [mN/g] | Grip Strength trial 1 (MDX-mice [3]) [N] | Grip Strength trial 5 (MDX-mice [3]) [N] | Effect on muscle strength (grip strength), in words (MDX-mice [3]) | Efficacy of monotherapy compared with combination of steroidal MR antagonist (spironolactone) and ACE inhibitor (lisinopril) (MDX-mice [3]) | Efficacy of monotherapy compared with combination of steroidal MR antagonist (spironolactone) and ACE inhibitor (lisinopril) (MDX-mice [3]; listed as (S)-4-(4-Cyano-2-methoxyphenyl)-5-ethoxy-2,8-dimethyl-1,4-dihydro-1,6-naphthyrid) | Effect on heart function (systolic strain rate), in words (MDX-mice [4]) | Base_PeakSysSR_Lat (endocardial circumferential S−1) (MDX-mice [4]) [S−1] | Base_PeakSysSR_Mean (endocardial circumferential S−1) (MDX-mice [4]) [S−1] | Base_PeakSysSR_Septum (endocardial circumferential S−1) (MDX-mice [4]) [S−1] |
| --- | --- | --- | --- | --- | --- | --- | --- | --- | --- | --- | --- | --- | --- | --- | --- | --- | --- |
| COC(=O)[C@@H]1CC2=CC(=O)CC[C@]2(C)[C@@]23O[C@@H]2C[C@@]2(C)[C@@H](CC[C@@]24CCC(=O)O4)[C@H]13 [eplerenone] | attenuates the progressive decline in left ventricular systolic function |  |  |  |  |  |  |  |  |  |  |  |  |  |  |  |  |
| CCOc1ncc(C)c2c1[C@H](c1ccc(C#N)cc1OC)C(C(N)=O)=C(C)N2 [Finerenone, (S)-4-(4-Cyano-2-methoxyphenyl)-5-ethoxy-2,8-dimethyl-1,4-dihydro-1,6-naphthyridin-3-carboxamid] |  | balanced distribution | 94 ± 5 | 71 ± 7 | 72 ± 6 | improvement of muscle strength | 37.5 ± 1.1 | 40.3 ± 1 | 1.1 ± 0.04 | 1.1 ± 0.04 | improvement of muscle strength | superior | as effective as | attenuation of heart function decline | 0.39 ± 0.04 | 0.35 ± 0.03 | 0.34 ± 0.04 |
| Nc1nc(-c2nn(Cc3ccccc3F)c3ncccc23)ncc1C1CC1 [BAY41-2272, 3-(4-amino-5-cyclopropylpyrimidin-2-yl)-1-(2-fluorobenzyl)-1H-pyrazolo[3,4-b]pyridine] |  |  | 86 ± 2 | 60 ± 5 | 60 ± 5 | improvement of muscle strength | 33.9 ± 0.9 | 38.3 ± 1.1 | 1.0 ± 0.04 | 0.9 ± 0.04 | improvement of muscle strength |  |  | attenuation of heart function decline | 0.37 ± 0.02 | 0.36 ± 0.02 | 0.39 ± 0.03 |

— patent US11439628B2, “Use of non-steroidal mineralocorticoid receptor antagonists alone or in combination for the treatment of muscular or neuromuscular diseases” (Bayer Aktiengesellschaft, priority 2018, dated 2022)
